Data taken from patent US12258354B2, “AhR modulators” (IDEAYA BIOSCIENCES, INC., priority 2018, dated 2025).

Biological target: T1, hAhR (Homo sapiens, UniProt P35869)
T1 construct: Stably integrated DRE-luciferase cell lines were generated by transducing the both cell lines with Cignal XRE luciferase reporter; endogenous in cells; host or cells: HEPG2 DRE-Luc cells (only the XRE luciferase reporter was transduced)
T1 sequence (P35869 11-848): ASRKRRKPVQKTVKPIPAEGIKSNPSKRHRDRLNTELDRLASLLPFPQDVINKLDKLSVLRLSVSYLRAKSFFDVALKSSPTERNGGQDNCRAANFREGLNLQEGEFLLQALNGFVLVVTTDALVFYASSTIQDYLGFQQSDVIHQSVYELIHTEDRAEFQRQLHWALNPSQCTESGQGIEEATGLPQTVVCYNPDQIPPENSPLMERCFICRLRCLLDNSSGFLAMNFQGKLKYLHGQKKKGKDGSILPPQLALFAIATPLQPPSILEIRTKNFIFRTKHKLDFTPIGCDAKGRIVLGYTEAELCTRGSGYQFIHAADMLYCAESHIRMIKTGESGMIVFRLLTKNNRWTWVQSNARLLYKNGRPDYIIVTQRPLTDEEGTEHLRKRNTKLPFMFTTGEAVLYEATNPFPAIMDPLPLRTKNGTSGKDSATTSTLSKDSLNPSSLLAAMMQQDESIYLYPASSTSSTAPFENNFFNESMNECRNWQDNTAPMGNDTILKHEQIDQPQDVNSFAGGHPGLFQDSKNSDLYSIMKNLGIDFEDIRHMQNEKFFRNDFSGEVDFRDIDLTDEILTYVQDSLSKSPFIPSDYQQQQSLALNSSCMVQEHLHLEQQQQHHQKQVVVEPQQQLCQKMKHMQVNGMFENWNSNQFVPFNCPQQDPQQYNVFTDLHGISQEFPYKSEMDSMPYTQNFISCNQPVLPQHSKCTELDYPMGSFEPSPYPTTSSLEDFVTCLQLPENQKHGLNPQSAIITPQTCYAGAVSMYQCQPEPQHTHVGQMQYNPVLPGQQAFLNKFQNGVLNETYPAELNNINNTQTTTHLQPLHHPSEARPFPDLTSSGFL
Test: DRE-luciferase transcriptional reporter assay in HEPG2 DRE-Luc cells, TCDD-induced (antagonist mode)
Format: cell-based
Conditions: relative IC50, 3 nM TCDD, 24-hour incubation, firefly luciferase readout
Description: HEPG2 and HEPA1C1C7 cells were maintained in MEM and αMEM without nucleosides supplemented with 10% heat inactivated FBS respectively. Stably integrated DRE-luciferase cell lines were generated by transducing the both cell lines with Cignal XRE luciferase reporter (Qiagen) lentiviral particles according to the manufacturer protocol. For both cell lines stably integrated reporter cell lines were selected for the presence of 2 μg/mL puromycin. Following selection of stably integrated cell line pools, clonal cell lines were isolated by limiting dilution in 96-well plates. Transcriptional assays were performed by seeding 100 μL of cells at a density of 250,000 or 100,000 cells/mL, for HEPG2 and HEPA1C1C7 DRE-Luc cells respectively, into 96-well cell culture plates in OptiMEM supplemented with 0.5% heat inactivated FBS and allowed to attach overnight. For modulator assays, the compounds were added in a semi-log dose response using a D300e Digital Dispenser (Tecan) followed normalization with vehicle (DMSO). Immediately following compound addition 10 μL of 2,3,7,8-Tetrachlorodibenzo-p-dioxin (TCDD) was added to the cells to a final concentration of 3 nM or 0.3 nM for the HEPG2 and HEPA1C1C7 DRE-Luc cells respectively. Following 24-hour incubation, the medium was removed and the cells were lysed in 25 μL of Reporter Lysis Buffer (Promega). Firefly luciferase activity was measured immediately following the addition of 50 μL Luciferase Assay Reagent (Promega). The percent maximal activity for each point was determined using the following equation: (RLUsample−RLUvehicle−TCDD)/(RLUvehicle+TCDD RLUvehicle−TCDD)*100. The relative IC50, defined as the compound concentration required to reduce the TCDD induced response between the top and bottom plateau of each individual dose response curve by half, for each compound was determined using Prism 7 (GraphPad Software).

Compound	IC50 [nM]
Cc1cc(-c2ncc3cc(C(F)(F)F)ccc3n2)ccc1N1CCn2ncc(C)c2C1=O [compound 002, 3-methyl-5-(2-methyl-4-(6-(trifluoromethyl)quinazolin-2-yl)phenyl)-6,7-dihydropyrazolo[1,5-a]pyrazin-4 (5H)-one]	< 200
Cc1cc(N2CCn3ncc(C)c3C2=O)c(C)cc1-c1ncc2cc(C(F)(F)F)ccc2n1 [compound 003, 5-(2,5-dimethyl-4-(6-(trifluoromethyl)quinazolin-2-yl)phenyl)-3-methyl-6,7-dihydropyrazolo[1,5-a]pyrazin-4 (5H)-one]	200 to 500
Cc1cc(-c2ccc3nc(C(F)(F)F)ccc3n2)ccc1N1CCn2ncc(C)c2C1=O [compound 006, 3-methyl-5-(2-methyl-4-(6-(trifluoromethyl)-1,5-naphthyridin-2-yl)phenyl)-6,7-dihydropyrazolo[1,5-a]pyrazin-4 (5H)-one]	< 200
Cc1cc(N2CCn3ncc(C)c3C2=O)c(F)cc1-c1ccc2nc(C(F)(F)F)ccc2n1 [compound 007, 5-(2-fluoro-5-methyl-4-(6-(trifluoromethyl)-1,5-naphthyridin-2-yl)phenyl)-3-methyl-6,7-dihydropyrazolo[1,5-a]pyrazin-4 (5H)-one]	< 200
Cc1cc(-c2ccc3cc(C(F)(F)F)ccc3n2)ccc1N1CCn2ncc(C)c2C1=O [compound 008, 3-methyl-5-(2-methyl-4-(6-(trifluoromethyl)quinolin-2-yl)phenyl)-6,7-dihydropyrazolo-[1,5-a]pyrazin-4 (5H)-one]	< 200
Cc1cc(-c2ncc3cc(C(F)(F)F)cc(C)c3n2)ccc1N1CCn2ncc(C)c2C1=O [compound 009, 3-methyl-5-(2-methyl-4-(8-methyl-6-(trifluoromethyl)quinazolin-2-yl)phenyl)-6,7-dihydropyrazolo[1,5-a]pyrazin-4 (5H)-one]	< 200
Cc1cc(N2CCc3cnn(C)c3C2=O)c(C)cc1-c1ccc2nc(C(F)(F)F)ccc2n1 [compound 010, 6-(2,5-dimethyl-4-(6-(trifluoromethyl)-1,5-naphthyridin-2-yl)phenyl)-1-methyl-1,4,5,6-tetrahydro-7H-pyrazolo[3,4-c]pyridin-7-one]	1000 to 10000
Cc1cc(N2CCOc3cnn(C)c3C2=O)c(F)cc1-c1ccc2nc(C(F)(F)F)ccc2n1 [compound 012, 7-(2-fluoro-5-methyl-4-(6-(trifluoromethyl)-1,5-naphthyridin-2-yl)phenyl)-1-methyl-6,7-dihydro-1H-pyrazolo[3,4-f][1,4]oxazepin-8 (5H)-one]	500 to 1000
Cc1cnn2c1C(=O)N(c1ccc(-c3ncc4cc(C(F)(F)F)ccc4n3)cc1F)CC2 [compound 013, 5-(2-fluoro-4-(6-(trifluoromethyl)quinazolin-2-yl)phenyl)-3-methyl-6,7-dihydropyrazolo[1,5-a]pyrazin-4 (5H)-one]	< 200
Cc1cc(-c2ncc3cc(C(F)(F)F)ccc3n2)ccc1N1CCc2cnn(C)c2C1=O [compound 015, 1-methyl-6-(2-methyl-4-(6-(trifluoromethyl)quinazolin-2-yl)phenyl)-1,4,5,6-tetrahydro-7H-pyrazolo[3,4-c]pyridin-7-one]	< 200
Cc1cc(-c2ncc3nc(C(F)(F)F)ccc3n2)ccc1N1CCn2ncc(C)c2C1=O [compound 016, 3-methyl-5-(2-methyl-4-(6-(trifluoromethyl)pyrido[3,2-d]pyrimidin-2-yl)phenyl)-6,7-dihydropyrazolo[1,5-a]pyrazin-4 (5H)-one]	< 200
Cc1cc(-c2ccc3nc(C(F)(F)F)cc(C)c3n2)ccc1N1CCn2ncc(C)c2C1=O [compound 017, 3-methyl-5-(2-methyl-4-(8-methyl-6-(trifluoromethyl)-1,5-naphthyridin-2-yl)phenyl)-6,7-dihydropyrazolo[1,5-a]pyrazin-4 (5H)-one]	< 200
Cc1cc(N2CCn3ncc(C)c3C2=O)c(C)cc1-c1ccc2nc(C(F)(F)F)ccc2n1 [compound 018, 5-(2,5-dimethyl-4-(6-(trifluoromethyl)-1,5-naphthyridin-2-yl)phenyl)-3-methyl-6,7-dihydropyrazolo[1,5-a]pyrazin-4 (5H)-one]	200 to 500
Cc1cc(N2CCn3ncc(C)c3C2=O)c(C)cc1-c1ccc2nc(C(F)(F)F)cc(C)c2n1 [compound 020, 5-(2,5-dimethyl-4-(8-methyl-6-(trifluoromethyl)-1,5-naphthyridin-2-yl)phenyl)-3-methyl-6,7-dihydropyrazolo[1,5-a]pyrazin-4 (5H)-one]	< 200
Cc1cc(N2CCn3ncc(C)c3C2=O)c(F)cc1-c1ncc2nc(C(F)(F)F)ccc2n1 [compound 021, 5-(2-fluoro-5-methyl-4-(6-(trifluoromethyl)pyrido[3,2-d]pyrimidin-2-yl)phenyl)-3-methyl-6,7-dihydropyrazolo[1,5-a]pyrazin-4 (5H)-one]	< 200
Cc1cc(N2CCn3ncc(C)c3C2=O)c(F)cc1-c1ccc2nc(C(F)(F)F)cc(C)c2n1 [compound 022, 5-(2-fluoro-5-methyl-4-(8-methyl-6-(trifluoromethyl)-1,5-naphthyridin-2-yl)phenyl)-3-methyl-6,7-dihydropyrazolo[1,5-a]pyrazin-4 (5H)-one]	< 200

Next, values leading:

IC50 [nM]	Compound
< 200	Cc1cc(-c2ncc3cc(C(F)(F)F)ccc3n2)ccc1N1CC(CO)n2ncc(C)c2C1=O (centres unmarked) [Example 114, 7-(hydroxymethyl)-3-methyl-5-(2-methyl-4-(6-(trifluoromethyl)quinazolin-2-yl)phenyl)-6,7-dihydropyrazolo[1,5-a]pyrazin-4 (5H)-one]
< 200	Cc1cc(-c2ncc3nc(C(F)(F)F)ccc3n2)ccc1N1CCOc2cnn(C)c2C1=O [compound 001, 1-methyl-7-(2-methyl-4-(6-(trifluoromethyl)pyrido[3,2-d]pyrimidin-2-yl)phenyl)-6,7-dihydro-1H-pyrazolo[3,4-f][1,4]oxazepin-8 (5H)-one]
< 200	Cc1cc(-c2ncc3nc(C(F)(F)F)ccc3n2)ccc1N1CCc2cnn(C)c2C1=O [compound 004, 1-methyl-6-(2-methyl-4-(6-(trifluoromethyl)pyrido[3,2-d]pyrimidin-2-yl)phenyl)-1,4,5,6-tetrahydro-7H-pyrazolo[3,4-c]pyridin-7-one]
< 200	Cc1cc(N2CCOc3cnn(C)c3C2=O)c(C)cc1-c1ccc2nc(C(F)(F)F)cc(C)c2n1 [compound 005, 7-(2,5-dimethyl-4-(8-methyl-6-(trifluoromethyl)-1,5-naphthyridin-2-yl)phenyl)-1-methyl-6,7-dihydro-1H-pyrazolo[3,4-f][1,4]oxazepin-8 (5H)-one]
< 200	Cc1cc(N2CCc3cnn(C)c3C2=O)c(F)cc1-c1ccc2nc(C(F)(F)F)ccc2n1 [compound 011, 6-(2-fluoro-5-methyl-4-(6-(trifluoromethyl)-1,5-naphthyridin-2-yl)phenyl)-1-methyl-1,4,5,6-tetrahydro-7H-pyrazolo[3,4-c]pyridin-7-one]
< 200	Cc1cc(-c2ncc3cc(C(F)(F)F)ccc3n2)ccc1N1Cc2cnn(C)c2C1=O [compound 014, 1-methyl-5-(2-methyl-4-(6-(trifluoromethyl)quinazolin-2-yl)phenyl)-4,5-dihydropyrrolo[3,4-c]pyrazol-6 (1H)-one]
< 200	Cc1cc(N2CCn3ncc(C)c3C2=O)c(C)cc1-c1ncc2nc(C(F)(F)F)ccc2n1 [compound 019, 5-(2,5-dimethyl-4-(6-(trifluoromethyl)pyrido[3,2-d]pyrimidin-2-yl)phenyl)-3-methyl-6,7-dihydropyrazolo[1,5-a]pyrazin-4 (5H)-one]
